Data on 30 compounds can be found in US20220144853A1, “IMIDAZOLINE DERIVATIVES AS CXCR4 MODULATORS” (Université de Paris, priority 2019, published 2022).

Structures can show the parent of a compound that is named as a salt. Bounds are passed on as bounds.

In the case of `CC1(C)CN2C(CSC3=NCCCCN3)=CSC2=N1` (as salt: hydrochloride) [Example 12, 6,6-dimethyl-3-(((4,5,6,7-tetrahydro-1H-1,3-diazepin-2-yl)thio)methyl)-5,6-dihydroimidazo[2,1-b]thiazole dihydrochloride], the melting point was > 250 °C.
Compound `CCCCC1CN=C(SCC2=CSC3=NC(C)(C)CN23)N1` (stereo not drawn) (as salt: hydrochloride) [Example 13, 3-(((5-butyl-4,5-dihydro-1H-imidazol-2-yl)thio)methyl)-6,6-dimethyl-5,6-dihydroimidazo[2,1-b]thiazole dihydrochloride] had a melting point of 95 to 104 °C.
`CC1(C)CN=C(SCC2=CSC3=NCCCN23)N1` (as salt: hydrochloride) [Example 14, 3-(((5,5-dimethyl-4,5-dihydro-1H-imidazol-2-yl)thio)methyl)-6,7-dihydro-5H-thiazolo[3,2-a]pyrimidine dihydrochloride]: the melting point lay in the range of 242 to 245 °C.
Compound `CC1(C)CN=C(SCC2=CSC3=NCCCCN23)N1` (as salt: hydrochloride) [Example 15, 3-(((5,5-dimethyl-4,5-dihydro-1H-imidazol-2-yl)thio)methyl)-5,6,7,8-tetrahydrothiazolo[3,2-a][1,3]diazepine dihydrochloride] had a melting point of 244 to 247 °C.
The figure for `CC1(C)CN2C(CSC3=NC(C)(C)C(C)(C)N3)=CSC2=N1` (as salt: hydrochloride) [Example 16, 6,6-dimethyl-3-(((4,4,5,5-tetramethyl-4,5-dihydro-1H-imidazol-2-yl)thio)methyl)-5,6-dihydroimidazo[2,1-b]thiazole dihydrochloride] is 185 to 205 °C.
`CC1(C)CN2C(CSC3=NCC(Cc4ccccc4)N3)=CSC2=N1` (stereo not drawn) (as salt: hydrochloride) [Example 17, 3-(((5-benzyl-4,5-dihydro-1H-imidazol-2-yl)thio)methyl)-6,6-dimethyl-5,6-dihydroimidazo[2,1-b]thiazole dihydrochloride] yielded a melting point of 83 to 103 °C.
Turning to `CC1(C)CN=C(SCC2=CSC3=NC(Cc4ccccc4)CN23)N1` (stereo not drawn) (as salt: hydrochloride) [Example 18, 6-benzyl-3-(((5,5-dimethyl-4,5-dihydro-1H-imidazol-2-yl)thio)methyl)-5,6-dihydroimidazo[2,1-b]thiazole dihydrochloride], the melting point fell in the range of 63 to 74 °C.
Under `CCCCC1CN2C(CSC3=NCC(C)(C)N3)=CSC2=N1` (stereo not drawn) (as salt: hydrochloride) [Example 19, 6-butyl-3-(((4,4-dimethyl-4,5-dihydro-1H-imidazol-2-yl)thio)methyl)-5,6-dihydroinidazo[2,1-b]thiazole dihydrochloride] stands 210 to 218 °C; under `CC1(C)CN=C(SCC2=CSC3=NC(C)(C)C(C)(C)N23)N1` (as salt: hydrochloride) [Example 20, 3-(((5,5-dimethyl-4,5-dihydro-1H-imidazol-2-yl)thio)methyl)-5,5,6,6-tetramethyl-5,6-dihydroimidazo[2,1-b]thiazole dihydrochloride], 140 to 160 °C.
The figure for `CC1(C)CN=C(SCC2=CSC3=NCCN23)N1` (as salt: hydrochloride) [Example 21, 3-(((5,5-dimethyl-4,5-dihydro-1H-imidazol-2-yl)thio)methyl)-5,6-dihydroimidazo[2,1-b]thiazole dihydrochloride] is 220 to 230 °C.
The figure for `CC1(C)CN2C(CSC3=N[C@@H]4CCC[C@@H](C4)N3)=CSC2=N1` (as salt: hydrochloride) [Example 22, 3-((((1R,5S)-2,4-diazabicyclo[3.3.1]non-2-en-3-yl)thio)methyl)-6,6-dimethyl-5,6-dihydroimidazo[2,1-b]thiazole dihydrochloride] is > 250 °C.
In the case of `CC1(C)CN2C(CSC3=N[C@H]4COC[C@H]4N3)=CSC2=N1` (as salt: hydrochloride) [Example 25, (3aR,6aS)-2-(((6,6-dimethyl-5,6-dihydroinidazo[2,1-b]thiazol-3-yl)methyl)thio)-3a,4,6,6a-tetrahydro-1H-furo[3,4-d]imidazole dihydrochloride], the melting point was > 250 °C.
Take `C1=C(CSC2=NCCN2)N2CCCN=C2S1` (as salt: hydrochloride) [Example 26, 3-(((4,5-dihydro-1H-imidazol-2-yl)thio)methyl)-6,7-dihydro-5H-thiazolo[3,2-a]pyrimidine dihydrochloride]: the melting point is > 250 °C.
Under `CC1(C)CN=C(SCC2=CSC3=NC(C)(C)CN23)NC1` (as salt: hydrochloride) [Example 28, 3-(((5,5-dimethyl-1,4,5,6-tetrahydropyrimidin-2-yl)thio)methyl)-6,6-dimethyl-5,6-dihydroimidazo[2,1-b]thiazole dihydrochloride] stands > 250 °C; under `C1=C(CSC2=NCCCN2)N2CCCN=C2S1` (as salt: hydrochloride) [Example 29, 3-(((1,4,5,6-tetrahydropyrimidin-2-yl)thio)methyl)-6,7-dihydro-5H-thiazolo[3,2-a]pyrimidine dihydrochloride], > 250 °C; under `CCCCC1CN=C(SCC2=CSC3=NCCN23)N1` (stereo not drawn) (as salt: hydrochloride) [Example 30, 3-(((5-butyl-4,5-dihydro-1H-imidazol-2-yl)thio)methyl)-5,6-dihydroimidazo[2,1-b]thiazole dihydrochloride], 176 to 178 °C.
The compound `CC1(C)CN=C2SC=C(CSC3=NCC(C)(C)N3)N2C1` (as salt: hydrochloride) [Example 34, 3-(((5,5-dimethyl-4,5-dihydro-1H-imidazol-2-yl)thio)methyl)-6,6-dimethyl-6,7-dihydro-5H-thiazolo[3,2-a]pyrimidine dihydrochloride] returned a melting point of 169 to 175 °C.
In the case of `C1=C(CSC2=NCCCN2)N2CCN=C2S1` (as salt: hydrochloride) [Example 35, 3-(((1,4,5,6-tetrahydropyrimidin-2-yl)thio)methyl)-5,6-dihydroimidazo[2,1-b]thiazole dihydrochloride], the melting point fell in the range of 100 to 102 °C.
The figure for `C1=C(CSC2=NCCCN2)N2CCCCN=C2S1` (as salt: hydrochloride) [Example 37, 3-(((1,4,5,6-tetrahydropyrimidin-2-yl)thio)methyl)-5,6,7,8-tetrahydrothiazolo[3,2-a][1,3]diazepine dihydrochloride] is > 250 °C.
The figure for `CC1(C)CN2C(CSC3=NCC4(CCCCC4)N3)=CSC2=N1` (as salt: hydrochloride) [Example 39, 3-(((1,3-diazaspiro[4.5]dec-2-en-2-yl)thio)methyl)-6,6-dimethyl-5,6-dihydroimidazo[2,1-b]thiazole dihydrochloride] is 225 to 231 °C; for `CC1(C)CN2C(CSC3=NCC4CCCCC4N3)=CSC2=N1` (stereo not drawn) (as salt: hydrochloride) [Example 40, 6,6-dimethyl-3-(((1,4,4a,5,6,7,8,8a-octahydroquinazolin-2-yl)thio)methyl)-5,6-dihydroimidazo[2,1-b]thiazole dihydrochloride] it is 245 to 249 °C; for `CC1(C)CN=C(SCCc2cccc3ncccc23)N1` (as salt: hydrochloride) [Example 41, 5-(2-((5,5-dimethyl-4,5-dihydro-1H-imidazol-2-yl)thio)ethyl)quinoline dihydrochloride] it is 240 to 245 °C.
Take `CC1(C)CN=C(SCC2=CSC3=NC4(CCCCC4)CN23)N1` (as salt: hydrochloride) [Example 42, 3′-(((5,5-dimethyl-4,5-dihydro-1H-imidazol-2-yl)thio)methyl)-5′H-spiro[cyclohexane-1,6′-imidazo[2,1-b]thiazole] dihydrochloride]: the melting point is 190 to 198 °C.
Under `CC1(C)CN=C(SCC2=CSC3=NC4CCCCC4CN23)N1` (stereo not drawn) (as salt: hydrochloride) [Example 43, 3-(((5,5-dimethyl-4,5-dihydro-1H-imidazol-2-yl)thio)methyl)-5a,6,7,8,9,9a-hexahydro-5H-thiazolo[2,3-b]quinazoline dihydrochloride] stands 241 to 245 °C; under `C1=C(CSC2=N[C@@H]3CCCC[C@H]3N2)N2CCN=C2S1` (as salt: hydrochloride) [Example 44, 3-((((3aR,7aR)-3a,4,5,6,7,7a-hexahydro-1H-benzo[d]imidazol-2-yl)thio)methyl)-5,6-dihydroimidazo[2,1-b]thiazole dihydrochloride], 230 to 233 °C; under `C1=C(CSC2=N[C@@H]3CCCC[C@H]3N2)N2CCCN=C2S1` (as salt: hydrochloride) [Example 45, 3-((((3aR,7aR)-3a,4,5,6,7,7a-hexahydro-1H-benzo[d]imidazol-2-yl)thio)methyl)-6,7-dihydro-5H-thiazolo[3,2-a]pyrimidine dihydrochloride], > 250 °C.
As to `C1=C(CSC2=N[C@@H]3CCCC[C@H]3N2)N2CCCCN=C2S1` (as salt: hydrochloride) [Example 46, 3-((((3aR,7aR)-3a,4,5,6,7,7a-hexahydro-1H-benzo[d]imidazol-2-yl)thio)methyl)-5,6,7,8-tetrahydrothiazolo[3,2-a][1,3]diazepine dihydrochloride], the melting point is > 250 °C.
The figure for `C1=C(CSC2=NCC(Cc3ccccc3)N2)N2CCCN=C2S1` (stereo not drawn) (as salt: hydrochloride) [Example 48, 3-(((5-benzyl-4,5-dihydro-1H-imidazol-2-yl)thio)methyl)-6,7-dihydro-5H-thiazolo[3,2-a]pyrimidine dihydrochloride] is 50 to 53 °C; for `CC(C)C1CN=C(SCC2=CSC3=NC(C)(C)CN23)N1` (stereo not drawn) (as salt: hydrochloride) [Example 49, 3-(((5-isopropyl-4,5-dihydro-1H-imidazol-2-yl)thio)methyl)-6,6-dimethyl-5,6-dihydroimidazo[2,1-b]thiazole dihydrochloride] it is 234 to 237 °C; for `CC1(C)CN=C(SCC2=CSC3=NC(c4ccccc4)CN23)N1` (stereo not drawn) (as salt: hydrochloride) [Example 50, 3-(((5,5-dimethyl-4,5-dihydro-1H-imidazol-2-yl)thio)methyl)-6-phenyl-5,6-dihydroimidazo[2,1-b]thiazole dihydrochloride] it is 245 to 247 °C.
